# Biological target: human Plasma Kallikrein (Homo sapiens (Human), UniProt P03952)
# Test: In vitro enzyme inhibition of human plasma kallikrein (PFR-AMC cleavage)
# Assay type: biochemical
# Conditions: human plasma kallikrein, Pro-Phe-Arg-AMC substrate, 37° C.; read-out: hPK IC50
# Protocol: The ability of the compounds disclosed herein to inhibit human plasma kallikrein activity was quantified according to the procedures below.
# A 10 mM solution of the test compound was made in DMSO. […] A control tube containing only DMSO is included. 16 μL of each compound test solution was combined with 384 μL of assay buffer (50 mM Tris-HCl pH 7.5, 150 mM NaCl, 0.01% Triton X-100) to yield a “4× test compound buffer stock”.
# These solutions are hereby referred to as 4×hPK and 2×PFR-AMC, respectively.
# 50 μL was removed from this mixture and placed into duplicate wells on a Microfluor 1Black U-bottom microtiter plate (Thermo Scientific). This plate was incubated for 5 minutes at 37° C. To each well, 50 μL of pre-warmed 2×PFR-AMC was added to start the enzymatic reaction. Cleavage of PFR-AMC was monitored in a Biotek Synergy H4 reader set at 37° C. Readings are taken every 43 seconds for 1 hour. […] The IC50 is calculated using the Gen5 (Biotek Instruments).
# The ability of the compounds in Table 3 to inhibit human plasma kallikrein activity was determined.
# Chain of human Plasma Kallikrein (P03952 20-638): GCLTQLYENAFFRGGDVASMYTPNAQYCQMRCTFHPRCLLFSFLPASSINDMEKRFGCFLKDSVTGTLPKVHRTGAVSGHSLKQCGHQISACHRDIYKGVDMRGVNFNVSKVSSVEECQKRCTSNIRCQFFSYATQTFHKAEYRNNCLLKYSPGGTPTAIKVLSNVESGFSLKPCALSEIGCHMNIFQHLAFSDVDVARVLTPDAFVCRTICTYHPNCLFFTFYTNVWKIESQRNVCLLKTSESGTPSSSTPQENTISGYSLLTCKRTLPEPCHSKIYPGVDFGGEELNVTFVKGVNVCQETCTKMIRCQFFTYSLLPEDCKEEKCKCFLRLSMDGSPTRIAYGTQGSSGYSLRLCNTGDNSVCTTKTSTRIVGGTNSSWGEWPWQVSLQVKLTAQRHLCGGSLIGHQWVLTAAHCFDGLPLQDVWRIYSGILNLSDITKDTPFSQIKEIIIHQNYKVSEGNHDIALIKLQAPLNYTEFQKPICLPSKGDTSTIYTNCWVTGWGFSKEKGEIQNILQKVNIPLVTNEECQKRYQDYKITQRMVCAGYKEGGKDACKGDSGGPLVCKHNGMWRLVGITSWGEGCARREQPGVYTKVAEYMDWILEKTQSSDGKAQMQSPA
row,Compound,IC50 [nM]
1,"COC(=O)c1cc(Cc2cc(C(=O)NCc3c(C)cc(N)nc3C)ccn2)cc2cc(Cl)cnc12 [Example 92, methyl 6-((4-(((6-amino-2,4-dimethylpyridin-3-yl)methyl)carbamoyl)pyridin-2-yl)methyl)-3-chloroquinoline-8-carboxylate]",< 100
2,"Cc1cc(N)nc(C)c1CNC(=O)c1ccnc(Cc2cc(C(=O)O)c3ncc(Cl)cc3c2)c1 [Example 93, 6-((4-(((6-amino-2,4-dimethylpyridin-3-yl)methyl)carbamoyl)pyridin-2-yl)methyl)-3-chloroquinoline-8-carboxylic acid]",< 100
3,"Cc1cc(N)nc(C)c1CNC(=O)c1ccnc(Cc2cc(CO)c3ncc(Cl)cc3c2)c1 [Example 94, N-((6-amino-2,4-dimethylpyridin-3-yl)methyl)-2-((3-chloro-8-(hydroxymethyl)quinolin-6-yl)methyl)isonicotinamide]",< 100
4,"COC(=O)c1cc(Cc2cc(C(=O)NCc3ccc(N)nc3C)ccn2)cc2cc(Cl)cnc12 [Example 95, methyl 6-((4-(((6-amino-2-methylpyridin-3-yl)methyl)carbamoyl)pyridin-2-yl)methyl)-3-chloroquinoline-8-carboxylate]",< 100
5,"Cc1nc(N)ccc1CNC(=O)c1ccnc(Cc2cc(C(=O)O)c3ncc(Cl)cc3c2)c1 [Example 96, 6-((4-(((6-amino-2-methylpyridin-3-yl)methyl)carbamoyl)pyridin-2-yl)methyl)-3-chloroquinoline-8-carboxylic acid]",100 to 1000
6,"Cc1nc(N)ccc1CNC(=O)c1ccnc(Cc2cc(CO)c3ncc(Cl)cc3c2)c1 [Example 97, N-((6-amino-2-methylpyridin-3-yl)methyl)-2-((3-chloro-8-(hydroxymethyl)quinolin-6-yl)methyl)isonicotinamide]",< 100
7,"Cc1cc(N)[n+]([O-])c(C)c1CNC(=O)c1ccnc(Cc2ccc3ncc(Cl)cc3c2)c1 [Example 98, 6-amino-3-((2-((3-chloroquinolin-6-yl)methyl)isonicotinamido)methyl)-2,4-dimethylpyridine 1-oxide]",100 to 1000
8,"Cc1cc(N)nc(C)c1CNC(=O)c1ccnc(Cc2ccc3c(cc(Cl)c[n+]3[O-])c2)c1 [Example 99, 6-((4-(((6-amino-2,4-dimethylpyridin-3-yl)methyl)carbamoyl)pyridin-2-yl)methyl)-3-chloroquinoline 1-oxide]",< 100
9,"Cc1nc(N)ccc1CNC(=O)c1ccnc(Cc2cc(Cl)c3ncc(Cl)cc3c2)c1 [Example 101, N-((6-amino-2-methylpyridin-3-yl)methyl)-2-((3,8-dichloroquinolin-6-yl)methyl)isonicotinamide]",< 100
10,"Cc1cc(N)nc(C)c1CNC(=O)c1ccnc(Cc2ccc3ncc(Cl)cc3c2F)c1 [Example 102, N-((6-amino-2,4-dimethylpyridin-3-yl)methyl)-2-((3-chloro-5-fluoroquinolin-6-yl)methyl)isonicotinamide]",< 100
11,"Cc1nc(N)ccc1CNC(=O)c1ccnc(Cc2ccc3ncc(Cl)cc3c2F)c1 [Example 103, N-((6-amino-2-methylpyridin-3-yl)methyl)-2-((3-chloro-5-fluoroquinolin-6-yl)methyl)isonicotinamide]",< 100
12,"Cc1cc(C(=O)NCc2c(C)cc(N)nc2C)cc(Cc2ccc3ncc(Cl)cc3c2)n1 [Example 104, N-((6-amino-2,4-dimethylpyridin-3-yl)methyl)-2-((3-chloroquinolin-6-yl)methyl)-6-methylisonicotinamide]",< 100
13,"Cc1cc(N)nc(C)c1CNC(=O)c1ccnc(Cn2ncc3cc(Cl)ccc32)c1 [Example 105, N-((6-amino-2,4-dimethylpyridin-3-yl)methyl)-2-((5-chloro-1H-indazol-1-yl)methyl)isonicotinamide]",< 100
14,"Cc1cc(N)nc(C)c1CNC(=O)c1ccnc(Cn2cc3cc(Cl)ccc3n2)c1 [Example 106, N-((6-amino-2,4-dimethylpyridin-3-yl)methyl)-2-((5-chloro-2H-indazol-2-yl)methyl)isonicotinamide]",< 100
15,"Cc1ccc2nn(Cc3cc(C(=O)NCc4c(C)cc(N)nc4C)ccn3)cc2c1 [Example 107, N-((6-amino-2,4-dimethylpyridin-3-yl)methyl)-2-((5-methyl-2H-indazol-2-yl)methyl)isonicotinamide]",100 to 1000
16,Cc1ccc2c(cnn2Cc2cc(C(=O)NCc3c(C)cc(N)nc3C)ccn2)c1 [Example 108],< 100
17,"Cc1ccc2nc(S(C)(=O)=O)c(Cc3cc(C(=O)NCc4cc5c(Cl)c[nH]c5cc4F)ccn3)cc2c1 [Example 109, N-((3-chloro-6-fluoro-1H-indol-5-yl)methyl)-2-((6-methyl-2-(methylsulfonyl)quinolin-3-yl)methyl)isonicotinamide]",100 to 1000
18,"Cc1ccc2cc(Cc3cc(C(=O)NCc4ccc(N)nc4C)ccn3)ccc2n1 [Example 112, N-((6-amino-2-methylpyridin-3-yl)methyl)-2-((2-methylquinolin-6-yl)methyl)isonicotinamide]",< 100

# The remaining lines, values ahead:
row,IC50 [nM],Compound
1,< 100,"Cc1cc(N)nc(C)c1CNC(=O)c1ccnc(Cc2cnc3ccc(F)cc3c2)c1 [Example 119, N-((6-amino-2,4-dimethylpyridin-3-yl)methyl)-2-((6-fluoroquinolin-3-yl)methyl)isonicotinamide]"
2,< 100,"O=C(NCc1cc2c(Cl)c[nH]c2cc1F)c1ccnc(Cc2cnc3ccc(F)cc3c2)c1 [Example 120, N-((3-chloro-6-fluoro-1H-indol-5-yl)methyl)-2-((6-fluoroquinolin-3-yl)methyl)isonicotinamide]"
3,< 100,"Cc1nc(N)ccc1CNC(=O)c1ccnc(Cc2cnc3ccc(F)cc3c2)c1 [Example 121, N-((6-amino-2-methylpyridin-3-yl)methyl)-2-((6-fluoroquinolin-3-yl)methyl)isonicotinamide]"
4,< 100,"Cc1cc(N)nc(C)c1CNC(=O)c1ccnc(Cc2cnc3cc(F)ccc3c2)c1 [Example 122, N-((6-amino-2,4-dimethylpyridin-3-yl)methyl)-2-((7-fluoroquinolin-3-yl)methyl)isonicotinamide]"
5,< 100,"O=C(NCc1cc2c(Cl)c[nH]c2cc1F)c1ccnc(Cc2cnc3cc(F)ccc3c2)c1 [Example 123, N-((3-chloro-6-fluoro-1H-indol-5-yl)methyl)-2-((7-fluoroquinolin-3-yl)methyl)isonicotinamide]"
6,< 100,"Nc1nccc2cc(CNC(=O)c3ccnc(Cc4cnc5cc(F)ccc5c4)c3)ccc12 [Example 124, N-((1-aminoisoquinolin-6-yl)methyl)-2-((7-fluoroquinolin-3-yl)methyl)isonicotinamide]"
7,< 100,"O=C(NCc1cc2c(Cl)c[nH]c2cc1F)c1ccnc(Cc2cnc3ccccc3c2)c1 [Example 125, N-((3-chloro-6-fluoro-1H-indol-5-yl)methyl)-2-(quinolin-3-ylmethyl)isonicotinamide]"
8,< 100,"O=C(NCc1cc2c(Cl)c[nH]c2cc1F)c1ccnc(Cc2cnc3ccc(Cl)cc3c2)c1 [Example 126, N-((3-chloro-6-fluoro-1H-indol-5-yl)methyl)-2-((6-chloroquinolin-3-yl)methyl)isonicotinamide]"
9,< 100,"Cc1ccc2ccc(Cc3cc(C(=O)NCc4ccc5c(N)nccc5c4)ccn3)cc2n1 [Example 127, N-((1-aminoisoquinolin-6-yl)methyl)-2-((2-methylquinolin-7-yl)methyl)isonicotinamide]"
10,< 100,"Cc1ccc2ccc(Cc3cc(C(=O)NCc4cc5c(Cl)c[nH]c5cc4F)ccn3)cc2n1 [Example 128, N-((3-chloro-6-fluoro-1H-indol-5-yl)methyl)-2-((2-methylquinolin-7-yl)methyl)isonicotinamide]"
11,100 to 1000,"Cc1ccc2ccc(Cc3cc(C(=O)NCc4c(C)cc(N)nc4C)ccn3)cc2n1 [Example 129, N-((6-amino-2,4-dimethylpyridin-3-yl)methyl)-2-((2-methylquinolin-7-yl)methyl)isonicotinamide]"
12,< 100,"Cc1cc(N)nc(C)c1CNC(=O)c1ccnc(Cc2ccc3nc(C#N)ccc3c2)c1 [Example 131, N-(6-amino-2,4-dimethyl-pyridin-3-ylmethyl)-2-(2-cyano-quinolin-6-ylmethyl)-isonicotinamide]"
13,< 100,"Cc1cc2cc(Cc3cc(C(=O)NCc4cc5c(Cl)c[nH]c5cc4F)ccn3)ccc2cn1 [Example 133, N-((3-chloro-6-fluoro-1H-indol-5-yl)methyl)-2-((3-methylisoquinolin-6-yl)methyl)isonicotinamide]"
14,100 to 1000,"CS(=O)(=O)c1ccc2cc(Cc3cc(C(=O)NCc4ccc5c(N)nccc5c4)ccn3)ccc2n1 [Example 134, N-((1-aminoisoquinolin-6-yl)methyl)-2-((2-(methylsulfonyl)quinolin-6-yl)methyl)isonicotinamide]"
15,100 to 1000,"CS(=O)(=O)c1ccc2cc(Cc3cc(C(=O)NCc4cc5c(Cl)c[nH]c5cc4F)ccn3)ccc2n1 [Example 135, N-((3-chloro-6-fluoro-1H-indol-5-yl)methyl)-2-((2-(methylsulfonyl)quinolin-6-yl)methyl)isonicotinamide]"
16,< 100,"N#Cc1ccnc2ccc(Cc3cc(C(=O)NCc4ccc5c(N)nccc5c4)ccn3)cc12 [Example 136, N-((1-aminoisoquinolin-6-yl)methyl)-2-((4-cyanoquinolin-6-yl)methyl)isonicotinamide]"
17,100 to 1000,"N#Cc1ccnc2ccc(Cc3cc(C(=O)NCc4cc5c(Cl)c[nH]c5cc4F)ccn3)cc12 [Example 137, N-((3-chloro-6-fluoro-1H-indol-5-yl)methyl)-2-((4-cyanoquinolin-6-yl)methyl)isonicotinamide]"

# From patent US9611252B2 (LifeSci Pharmaceuticals, Inc., priority 2013, dated 2017)
